pIC50: −log10 of the molar value. Values belong to the compound of their own block, whether it stands above or below them. Calls of active or inactive are those of the source. No cut-off for these calls is given here.
Experiments:
[1] = system: HL-60; test: Cell cycle arrest in human HL60 cells assessed as accumulation at G0/G1 phase at IC50 after 24 hrs by propidium iodide staining based flow cytometric method (reference value: 51.7%); format: functional
[2] = system: HL-60; test: Cell cycle arrest in human HL60 cells assessed as accumulation at sub-G0/G1 phase at IC50 after 24 hrs by propidium iodide staining based flow cytometric method (reference value: 3.9%); format: functional
[3] = system: HL-60; test: Cell cycle arrest in human HL60 cells assessed as accumulation at G2/M-phase at IC50 after 24 hrs by propidium iodide staining based flow cytometric method (reference value: 14.06%); format: functional
[4] = system: HL-60; test: Cell cycle arrest in human HL60 cells assessed as accumulation at S-phase at IC50 after 24 hrs by propidium iodide staining based flow cytometric method (reference value: 34.24%); format: functional
[5] = system: MCF7; test: Antiproliferative activity against human MCF7 cells after 72 hrs by XTT assay; format: functional, cell-based; conditions: MCF7, 72 h
[6] = system: MCF7; test: Antiproliferative activity against human MCF7 cells after 24 hrs by XTT assay; format: functional, cell-based; conditions: MCF7, 24 h
[7] = system: HL-60; test: Antiproliferative activity against human HL60 cells after 24 hrs by XTT assay; format: functional, cell-based; conditions: HL-60, 24 h
[8] = system: HL-60; test: Antiproliferative activity against human HL60 cells after 72 hrs by XTT assay; format: functional, cell-based; conditions: HL-60, 72 h
[9] = system: DNA; test: Binding affinity to Escherichia coli supercoiled pBR322 DNA assessed as 0 to 2 cross links per DNA molecule at 0.005 molar ratio per nucleotide incubated for 24 hrs under dark condition by tapping mode atomic force microscopic analysis (reference value: 49%); format: nucleic-acid assay
[10] = system: DNA; test: Binding affinity to Escherichia coli supercoiled pBR322 DNA assessed as 9 to 10 cross links per DNA molecule at 0.005 molar ratio per nucleotide incubated for 24 hrs under dark condition by tapping mode atomic force microscopic analysis (reference value: 2%); format: nucleic-acid assay
[11] = system: MCF7; test: Cell cycle arrest in human MCF7 cells assessed as accumulation at sub-G0/G1 phase at IC50 after 24 hrs by propidium iodide staining based flow cytometric method; format: functional
[12] = system: MCF7; test: Induction of apoptosis in human MCF7 cells assessed as cell blobbing at IC50 after 24 hrs by DAPI staining based immunofluorescence microscopic analysis; format: functional
[13] = system: HL-60; test: Induction of apoptosis in human HL60 cells assessed as late apoptotic cells at IC50 after 24 hrs by annexin-V-FITC/propidium iodide staining based flow cytometric analysis (reference value: 1.93%); format: functional
[14] = system: DNA; test: Binding affinity to Escherichia coli supercoiled pBR322 DNA assessed as supercoiled areas of plasmid DNA at 0.005 molar ratio per nucleotide incubated for 24 hrs under dark condition by tapping mode atomic force microscopic analysis (reference value: 3.5%); format: nucleic-acid assay
[15] = system: DNA; test: Binding affinity to Escherichia coli supercoiled pBR322 DNA assessed as DNA undergoing cross links at 0.005 molar ratio per nucleotide incubated for 24 hrs under dark condition by tapping mode atomic force microscopic analysis; format: nucleic-acid assay
[16] = system: MCF7; test: Cell cycle arrest in human MCF7 cells assessed as accumulation at G2/M-phase at IC50 after 24 hrs by propidium iodide staining based flow cytometric method; format: functional
[17] = system: HL-60; test: Induction of apoptosis in human HL60 cells assessed as viable cells at IC50 after 24 hrs by annexin-V-FITC/propidium iodide staining based flow cytometric analysis (reference value: 93.81%); format: functional
[18] = system: Calf thymus DNA; test: Binding affinity to calf thymus DNA at 0.1 to 0.5 molar ratio per nucleotide incubated for 24 hrs under dark condition by circular dichroism spectral analysis; format: nucleic-acid assay; conditions: Bos taurus
[19] = system: MCF7; test: Cell cycle arrest in human MCF7 cells assessed as accumulation at S-phase at IC50 after 24 hrs by propidium iodide staining based flow cytometric method; format: functional
[20] = system: MCF7; test: Cell cycle arrest in human MCF7 cells assessed as accumulation at G0/G1 phase at IC50 after 24 hrs by propidium iodide staining based flow cytometric method; format: functional
[21] = system: MCF7; test: Induction of apoptosis in human MCF7 cells assessed as DNA condensation at IC50 after 24 hrs by DAPI staining based immunofluorescence microscopic analysis; format: functional, cell-based
[22] = system: HL-60; test: Induction of apoptosis in human HL60 cells assessed as necrotic cells at IC50 after 24 hrs by annexin-V-FITC/propidium iodide staining based flow cytometric analysis (reference value: 0.06%); format: functional
[23] = system: DNA; test: Binding affinity to Escherichia coli supercoiled pBR322 DNA assessed as DNA undergoing kinks at 0.005 molar ratio per nucleotide incubated for 24 hrs under dark condition by tapping mode atomic force microscopic analysis; format: nucleic-acid assay
[24] = system: DNA; test: Binding affinity to Escherichia coli supercoiled pBR322 DNA assessed as 3 to 5 cross links per DNA molecule at 0.005 molar ratio per nucleotide incubated for 24 hrs under dark condition by tapping mode atomic force microscopic analysis (reference value: 37%); format: nucleic-acid assay
[25] = system: HL-60; test: Induction of apoptosis in human HL60 cells assessed as early apoptotic cells at IC50 after 24 hrs by annexin-V-FITC/propidium iodide staining based flow cytometric analysis (reference value: 4.2%); format: functional
[26] = system: MCF7; test: Induction of apoptosis in human MCF7 cells assessed as shrinkage of cell core at IC50 after 24 hrs by DAPI staining based immunofluorescence microscopic analysis; format: functional
[27] = system: MCF7; test: Induction of apoptosis in human MCF7 cells assessed as nuclear fragmentation at IC50 after 24 hrs by DAPI staining based immunofluorescence microscopic analysis; format: functional, cell-based
[28] = system: DNA; test: Binding affinity to Escherichia coli supercoiled pBR322 DNA assessed as more than 10 cross links per DNA molecule at 0.005 molar ratio per nucleotide incubated for 24 hrs under dark condition by tapping mode atomic force microscopic analysis (reference value: 1%); format: nucleic-acid assay
[29] = system: MCF7; test: Induction of apoptosis in human MCF7 cells assessed as microtubule disintegration at IC50 after 24 hrs by indirect immunofluorescence analysis; format: functional, cell-based
[30] = system: MCF7; test: Induction of apoptosis in human MCF7 cells assessed as reduction in cell size at IC50 after 24 hrs by DAPI staining based immunofluorescence microscopic analysis; format: functional
[31] = system: MCF7; test: Induction of apoptosis in human MCF7 cells assessed as nuclear condensation at IC50 after 24 hrs by DAPI staining based immunofluorescence microscopic analysis; format: functional, cell-based
[32] = system: DNA; test: Binding affinity to Escherichia coli supercoiled pBR322 DNA assessed as DNA structural variation at 0.1 to 0.5 molar ratio per nucleotide incubated for 24 hrs under dark condition by ethidium bromide staining based agarose gel electrophoresis; format: nucleic-acid assay
[33] = system: DNA; test: Binding affinity to Escherichia coli supercoiled pBR322 DNA assessed as 6 to 8 cross links per DNA molecule at 0.005 molar ratio per nucleotide incubated for 24 hrs under dark condition by tapping mode atomic force microscopic analysis (reference value: 12%); format: nucleic-acid assay
[34] = system: MCF7; test: Induction of apoptosis in human MCF7 cells assessed as formation of apoptotic bodies at IC50 after 24 hrs by DAPI staining based immunofluorescence microscopic analysis; format: functional, cell-based

Structure (SMILES): COC(=O)Nc1nc2cc(C(=O)c3cccs3)ccc2[nH]1 [NOCODAZOLE]
Activity [1]: 45.28%
Activity [2]: 14.11%
Activity [3]: 33.46%
Activity [4]: 21.26%

pIC50 [5]: < 3.60
pIC50 [6]: < 3.60
pIC50 [7]: < 3.60
pIC50 [8]: < 3.60
Structure (SMILES): C[C@H]1[C@H]2CC[C@H](O2)[C@]2(C)[C@@H](OCc3ccccc3)C(=O)C[C@]12O (relative stereo)

Activity [9]: 51%
Activity [10]: 1%
pIC50 [5]: 4.73
pIC50 [6]: 4.57
Activity [14]: 3.6%
Activity [15]: inactive
Activity [18]: inactive
Activity [23]: inactive
pIC50 [7]: 5.52
Activity [24]: 28%
pIC50 [8]: 5.49
Activity [28]: 1%
Activity [32]: inactive
Activity [33]: 19%
Structure (SMILES): CC(=O)O[C@H](OCc1ccccc1)[C@]1(C)C(=O)[C@@H](I)C(=O)[C@@H](C)[C@@H]2CC[C@H]1O2
Activity [1]: 67.37%
Activity [11]: Active
Activity [12]: Active
Activity [13]: 26.85%
Activity [16]: inactive
Activity [17]: 55.71%
Activity [19]: Active
Activity [20]: Active
Activity [2]: 31.14%
Activity [21]: Active
Activity [22]: 0.35%
Activity [25]: 16.97%
Activity [26]: Active
Activity [27]: Active
Activity [29]: Active
Activity [3]: 6.33%
Activity [30]: Active
Activity [31]: Active
Activity [34]: Active
Activity [4]: 26.31%
